The target of one assay is T1, CYP11B1 (Homo sapiens, UniProt P15538).
T1 construct: Thus, the NCI-H295R cells have Cyp11 B1 (steroid 11 p-hydroxylase); host or cells: NCI-H295R
T1 sequence (P15538 25-503): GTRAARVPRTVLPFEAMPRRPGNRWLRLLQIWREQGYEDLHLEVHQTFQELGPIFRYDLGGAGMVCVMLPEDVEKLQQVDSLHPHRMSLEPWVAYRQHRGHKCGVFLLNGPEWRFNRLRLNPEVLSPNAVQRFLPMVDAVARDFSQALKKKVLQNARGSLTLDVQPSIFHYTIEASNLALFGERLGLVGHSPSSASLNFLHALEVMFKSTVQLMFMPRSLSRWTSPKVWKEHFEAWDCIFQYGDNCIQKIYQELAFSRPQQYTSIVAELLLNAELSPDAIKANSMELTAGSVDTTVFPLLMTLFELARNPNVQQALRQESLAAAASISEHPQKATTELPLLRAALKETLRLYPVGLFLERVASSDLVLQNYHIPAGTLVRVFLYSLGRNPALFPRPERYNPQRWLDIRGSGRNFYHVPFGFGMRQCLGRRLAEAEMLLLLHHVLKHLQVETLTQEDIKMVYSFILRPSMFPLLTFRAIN
Put plainly: in vitro CYP11B1 inhibition, steroid release from NCI-H295R cells. Format: cell-based. To be noted: NCI-H295R; read-out: 11B1 % I @ 100 nM. An excerpt: The in vitro inhibitory activities for CYP11B1 can be determined by the following assay.
The cell line NCI-H295R was originally isolated from an adrenocortical carcinoma and has been characterized in the literature through the stimulable secretion of steroid hormones and the presence of the enzymes essential for steroidogenesis. Thus, the NCI-H295R cells have Cyp11 B1 (steroid 11 p-hydroxylase). The cells show the physiological property of zonally undifferentiated human foetal adrenocortical cells which, however, have the capacity to produce the steroid hormones which are formed in the three, phenotypically distinguishable zones in the adult adrenal cortex.
The NCI-H295R cells (American Type Culture Collection, ATCC, Rockville, Md., USA) are grown in Dulbeoco's Modified Eagle'Ham F-12 Medium (DME/F12), which has been I supplemented with Ulroser SF Serum (Soprachem, Cergy-Saint-Christophe, France), insulin, transferrin, selenite (I-T-S, Becton Dickinson Biosciences, Franklin lakes, NJ, USA) and antibiotics in 75 cm^2 cell culture vessels at 37° C. and in a 95% air-5% carbon dioxide atmosphere. The cells are subsequently transferred for colony formation into a 24-well incubation vessel. They are cultivated there in DME/F12 medium, which is now supplemented with 0.1% bovine serum instead of Ultroser SF for 24 hours. The experiment is initiated by cultivating the cells in DME/F12 medium which is supplemented with 0.1% bovine serum albumin and test compound, in the presence or absence of cell stimulants, for 72 hours. The test substance is added in a concentration range from 0.2 nanomolar to […]. Cell stimulants which can be used are angiotensin 11 ([…] or 100 nanomolar), potassium ions (16 millimolar), forskolin (10 micromolar) or a combination of two stimulants.
The excretion of aldosterone, cortisol, corticosterone and estradiol/estrone into the culture medium can be detected and quantified by commercially available, specific monoclonal antibodies in radioimmunoassays in accordance with the manufacturer's instructions.
Inhibition of the release of certain steroids can be used as a measure of the respective enzyme inhibition by the added test compounds. The dose-dependent inhibition of enzymic activity by a compound is calculated by means of an inhibition plot which is characterized by an IC50.
The IC50 values for active test compounds are ascertained by a […] in order to construct inhibition plots without data weighting. The inhibition plot is calculated by fting a 4-parameter logistic function to the raw data points using the least squares method. The equation of the 4-parameter logistic function is calculated as follows: Y=(d−a)/((1+(x/c)b))+a I where: a=minimum data level b=gradient I c=ICED, d=maximum data level x=inhibitor concentration.

The target in assay [1] is T2, aldosterone synthase (CYP11B2) (Homo sapiens, UniProt P19099).
T2 construct: host or cells: NCI-H295R
T2 sequence (P19099 25-503): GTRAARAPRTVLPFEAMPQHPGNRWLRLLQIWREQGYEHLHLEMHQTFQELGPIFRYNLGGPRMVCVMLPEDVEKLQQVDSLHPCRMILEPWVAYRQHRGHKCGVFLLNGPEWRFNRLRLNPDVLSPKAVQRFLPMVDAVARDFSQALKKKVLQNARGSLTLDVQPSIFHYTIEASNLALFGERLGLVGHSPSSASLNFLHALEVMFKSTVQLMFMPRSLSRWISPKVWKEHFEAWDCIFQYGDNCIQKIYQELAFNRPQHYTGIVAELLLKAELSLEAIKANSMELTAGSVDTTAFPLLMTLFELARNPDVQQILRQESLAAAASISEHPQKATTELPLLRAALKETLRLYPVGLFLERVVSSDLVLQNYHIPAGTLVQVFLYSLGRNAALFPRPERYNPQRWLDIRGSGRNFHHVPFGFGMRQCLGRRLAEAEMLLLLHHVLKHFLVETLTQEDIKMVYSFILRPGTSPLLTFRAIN
Put plainly: in vitro aldosterone synthase inhibition, aldosterone production in Ang II-stimulated NCI-H295R cells. Format: cell-based. Conditions: read-out: AS IC50. An excerpt: In particular, the aldosterone synthase inhibitory activities in vitro can be determined by the following assay.
Human adrenocortical carcinoma NCI-H295R cell line is obtained from American Type Culture Collection (Manassas, Va.). Insulin/transferrin/selenium (ITS)-A supplement (100×), DMEM/F-12, antibiotic/antimycotic (100×), and fetal calf serum (FCS) are purchased from Gibco (Grand Island, N.Y.). Anti-mouse PVT scintillation proximity assay (SPA) beads and NBS 96-well plates are obtained from Amersham (Piscataway, N.J.) and Corning (Acton, Mass.), respectively. Solid black 96-well flat bottom plates were purchased from Costar (Corning, N.Y.). Aldosterone and angiotensin (Ang II) are purchased from Sigma (St. Louis, Mo.). D-[1,2,6,7-^3H(N)]aldosterone was acquired from PerkinElmer (Boston, Mass.). Nu-serum was a product of BD Biosciences (Franklin Lakes, N.J.).
For in vitro measurement of aldosterone activity, human adrenocortical carcinoma NCI-H295R cells are seeded in NBS 96-well plates at a density of 25,000 cells/well in 100 μl of a growth medium containing DMEM/F12 supplemented with 10% FCS, 2.5% Nu-serum, 1 μg ITS/ml, and 1× antibiotic/antimycotic. The medium is changed after culturing for 3 days at 37° C. under an atmosphere of 5% CO2/95% air. On the following day, cells are rinsed with 100 μl of DMEM/F12 and incubated with 100 μl of treatment medium containing 1 μM Ang II and a compound at different concentrations in quadruplicate wells at 37° C. for 24 hr. At the end of incubation, 50 μl of medium is withdrawn from each well for measurement of aldosterone production by an RIA using mouse anti-aldosterone monoclonal antibodies.
Measurement of aldosterone activity can also be performed using a 96-well plate format. Each test sample is incubated with 0.02 μCi of D-[1,2,6,7-^3H(N)]aldosterone and 0.3 μg of anti-aldosterone antibody in phosphate-buffered saline (PBS) containing 0.1% Triton X-100, 0.1% bovine serum albumin, and 12% glycerol in a total volume of 200 μl at room temperature for 1 hr. Anti-mouse PVT SPA beads (50 μl) are then added to each well and incubated overnight at room temperature prior to counting in a Microbeta plate counter. The amount of aldosterone in each sample is calculated by comparing with a standard curve generated using known quantities of the hormone.

pIC50: −log10 of the molar value.

In general, pIC50 refers to −log10 of the IC50, conventionally taken in molar units.

Turning to `CC(C)OC(=O)c1cncn1C1CCCc2ccc(C(=O)N3CCCC3)cc21` (single isomer, unassigned) [Compound 3, 3-[7-(Pyrrolidine-1-carbonyl)-1,2,3,4-tetrahydro-naphthalen-1-yl]-3H-imidazole-4-carboxylic acid isopropyl ester], the inhibition at 0.1 µM at CYP11B1 worked out at 87%. Besides, the pIC50 in assay [1] is 6.67.

As to `COC(=O)c1cncn1C1c2ccccc2C(NCc2ccccc2)CC1(C)C` (centres unmarked) [Compound 13, 3-(4-Benzylamino-2,2-dimethyl-1,2,3,4-tetrahydro-naphthalen-1yl)-3H-imidazole-4-carboxylic acid methyl ester], at CYP11B1, the inhibition at 0.1 µM was determined as 60%. The pIC50 in assay [1] is 6.16.

Take `CC1(C)CSc2ccccc2C1n1ccnc1` (centres unmarked) [Compound 14, 1-(3,3-Dimethyl-thiochroman-4-yl)-1H-imidazole]: on CYP11B1, the inhibition at 0.1 µM came out at 92%. For the same compound, the pIC50 in assay [1] is 6.90.

As to `CC(C)OC(=O)c1cncn1C1CCCc2cc(C3CC3)ccc21` (centres unmarked) [Compound 7, 3-(6-Cyclopropyl-1,2,3,4-tetrahydro-naphthalen-1-yl)-3H-imidazole-4-carboxylic acid isopropyl ester], in assay [1], the pIC50 is 6.57.

For the compound `CC1(C)Cc2ccccc2C1n1cncc1C(=O)NCCO` (centres unmarked) [Compound 20, 3-(2,2-Dimethyl-indan-1-yl)-3H-imidazole-4-carboxylic acid (2-hydroxy-ethyl)-amide], in assay [1], the pIC50 is 8.22.

Turning to `CC(C)OC(=O)c1cncn1C1CCCc2ccccc21` (single isomer, unassigned) [Compound 1, 3-(1,2,3,4-Tetrahydro-naphthalen-1-yl)-3H-imidazole-4-carboxylic acid isopropyl ester], the inhibition at 0.1 µM at CYP11B1 turned out to be 99%. Further, in assay [1], the pIC50 is 7.36.

Consider `COC(=O)c1cncn1C1c2ccccc2C(=O)CC1(C)C` (single isomer, unassigned) [Compound 10, 3-(2,2-Dimethyl-4-oxo-1,2,3,4-tetrahydro-naphthalen-1-yl)-3H-imidazole-4-carboxylic acid methyl ester], for which, on CYP11B1, the inhibition at 0.1 µM was 99%. Also, the pIC50 in assay [1] was 7.57.

`CC(C)OC(=O)c1cncn1C1CCCc2ccc(N(C)S(C)(=O)=O)cc21` (centres unmarked) [Compound 5, 3-(7-Methanesulfonyl-methyl-amino-1,2,3,4-tetrahydro-naphthalen-1-yl)-3H-imidazole-4-carboxylic acid isopropyl ester]: the pIC50 in assay [1] was 6.45.

As for `COC(=O)c1cncn1[C@H]1c2ccccc2[C@@H](O)CC1(C)C` (relative stereo) [Compound 12, 3-(cis-4-Hydroxy-2,2-dimethyl-1,2,3,4-tetrahydro-naphthalen-r-1-yl)-3H-imidazole-4-carboxylic acid methyl ester], the pIC50 in assay [1] is 7.85.

On to `CC(C)OC(=O)c1cncn1C1CCCc2ccc(C#N)cc21` (centres unmarked) [Compound 6, 3-(7-Cyano-1,2,3,4-tetrahydro-naphthalen-1-yl)-3H-imidazole-4-carboxylic acid isopropyl ester], for which, in assay [1], the pIC50 is 6.71.

For `Cc1noc(-c2cncn2C2c3ccccc3CC2(C)C)n1` (centres unmarked) [Compound 21, 5-[3-(2,2-Dimethyl-indan-1-yl)-3H-imidazol-4-yl]-3-methyl-[1,2,4]oxadiazole], the inhibition at 0.1 µM at CYP11B1 worked out at 98%. For the same compound, the pIC50 in assay [1] is 6.89.

For the compound `CC(=O)Nc1ccc2c(c1)CCCC2n1cncc1C(=O)OC(C)C` (centres unmarked) [Compound 4, 3-(6-Acetylamino-1,2,3,4-tetrahydro-naphthalen-1-yl)-3H-imidazole-4-carboxylic acid isopropyl ester], the pIC50 in assay [1] was 7.07.

Consider `COC(=O)c1cncn1C1c2ccccc2OC1(C)C` (centres unmarked) [Compound 25, 3-(2,2-Dimethyl-2,3-dihydro-benzofuran-3-yl)-3H-imidazole-4-carboxylic acid methyl ester], for which, at CYP11B1, the inhibition at 0.1 µM stood at 96%. Also, the negative-log IC50 (pIC50) in assay [1] is 7.34.

As for `CC(C)OC(=O)c1cncn1C1CCOc2ccccc21` (single isomer, unassigned) [Compound 15, 3-Chroman-4-yl-3H-imidazole-4-carboxylic acid isopropyl ester], at CYP11B1, the inhibition at 0.1 µM was found to be 65%. For the same compound, the pIC50 in assay [1] was 6.99.

As to `c1ccc(COc2cncn2C2CSCc3ccccc32)cc1` (centres unmarked) [Compound 18, 5-Benzyloxy-1-isothiochroman-4-yl-1H-imidazole], the negative logarithm of the IC50 (pIC50) in assay [1] was 6.82.

On to `CC1(C)Cc2ccccc2C1n1cncc1C(=O)NCc1ccccc1` (centres unmarked) [Compound 19, 3-(2,2-Dimethyl-indan-1-yl)-3H-imidazole-4-carboxylic acid benzylamide], for which, in assay [1], the pIC50 was 7.77.

For the compound `CC(C)OC(=O)c1cncn1C1CCOc2ccccc21` (single isomer, unassigned) [Compound 16, 3-Chroman-4-yl-3H-imidazole-4-carboxylic acid isopropyl ester], the pIC50 in assay [1] is 6.82.

As to `CCC(=O)Oc1cncn1C1CCCc2ccccc21` (centres unmarked) [Compound 2, Propionic acid 3-(1,2,3,4-tetrahydro-naphthalen-1-yl)-3H-imidazol-4-yl ester], in assay [1], the pIC50 is 7.68.

The record behind these values is patent publication US8436035B2, “Organic compounds” (Novartis AG, priority 2006, dated 2013).
